According to patent publication US20260042753A1 (Merck Patent GmbH, priority 2019, published 2026):

Legend:
c-Kit(V654A) = c-Kit(V654A) (Homo sapiens, UniProt P10721, V654A); assay: c-Kit(V654A) assay; type: biochemical; details: Table 1; 200 μM ATP
Experimental: c-Kit(V654A) (N-terminal GST-tagged, recombinant human c-Kit, amino acids 544-end containing the V654A mutation) is incubated with 8 mM MOPS pH 7.0, 0.2 mM EDTA, 250 μM GGMEDIYEFMGGKKK, 10 mM MgAcetate and [gamma-33P-ATP](specific activity approx. 500 cpm/pmol, concentration 200 μM). The reaction is initiated by the addition of the MgATP mix. After incubation for 40 minutes at room temperature, the reaction is stopped by the addition of 3% phosphoric acid solution. 10 μL of the reaction is then spotted onto a P30 filtermat and washed three times for 5 minutes in 75 mM phosphoric acid and once in methanol prior to drying and scintillation counting.

[1] = target: mutant cKIT (560-576 and V654A) in GIST430/654 cell line (Homo sapiens (Human), UniProt P10721, DEL560-576/V654A); assay: Cellular testing of cKIT mutant inhibitors: phospho-Y307-cKIT Luminex assay in GIST430/654 cells; type: cell-based; details: Table 1; cKIT autophosphorylation, compounds 45 min; read-out: GIST 430/654 IC50
Chain of mutant cKIT (560-576 and V654A) in GIST430/654 cell line (P10721 other isoform, or with tags, fused parts or gaps V654A/del 1-25/del 560-576 limits assumed): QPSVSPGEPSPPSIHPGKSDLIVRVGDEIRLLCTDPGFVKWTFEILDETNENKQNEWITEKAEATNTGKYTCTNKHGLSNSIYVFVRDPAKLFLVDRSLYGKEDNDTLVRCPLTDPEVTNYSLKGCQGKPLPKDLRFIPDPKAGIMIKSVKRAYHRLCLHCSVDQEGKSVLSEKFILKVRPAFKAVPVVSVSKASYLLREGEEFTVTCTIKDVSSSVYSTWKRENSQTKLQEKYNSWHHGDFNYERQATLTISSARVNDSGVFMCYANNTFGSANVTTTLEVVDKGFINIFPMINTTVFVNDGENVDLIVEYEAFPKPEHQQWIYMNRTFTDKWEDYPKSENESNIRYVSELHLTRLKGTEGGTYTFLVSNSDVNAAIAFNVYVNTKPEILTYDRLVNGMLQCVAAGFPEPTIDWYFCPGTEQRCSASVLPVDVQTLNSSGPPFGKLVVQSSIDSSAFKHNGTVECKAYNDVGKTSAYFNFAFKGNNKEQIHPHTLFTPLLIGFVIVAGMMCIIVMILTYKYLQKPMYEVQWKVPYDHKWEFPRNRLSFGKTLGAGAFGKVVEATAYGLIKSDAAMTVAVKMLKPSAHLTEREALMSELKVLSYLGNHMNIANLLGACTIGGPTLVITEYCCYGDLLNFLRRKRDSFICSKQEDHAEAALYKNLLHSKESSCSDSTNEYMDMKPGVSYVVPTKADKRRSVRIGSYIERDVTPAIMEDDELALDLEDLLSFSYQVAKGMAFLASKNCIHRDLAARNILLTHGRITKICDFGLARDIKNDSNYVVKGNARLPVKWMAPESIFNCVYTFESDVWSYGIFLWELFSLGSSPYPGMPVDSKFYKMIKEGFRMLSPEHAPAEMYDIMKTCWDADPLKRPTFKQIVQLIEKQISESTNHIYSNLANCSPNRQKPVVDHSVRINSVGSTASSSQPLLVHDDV
Experimental: Assay Principle for Cellular Testing of cKIT Mutant Inhibitors
The GIST430/654 cell line expressing mutated constitutively active cKIT receptor tyrosine kinase ([…]560-576 and V654A) was employed for assessing cellular potency of compounds. Cellular activity of mutant cKIT was determined by the degree of cKIT autophosphorylation at tyrosine 307 using a Luminex-based bead assay. GIST430/654 cells were plated with 25,000 cells per well of a 96-well plate in 100 μl medium (85% IMDM/15% FCS supplemented with 100 nM Imatinib). At the following day compounds were added in a serial dilution for 45 min. Then, cells were lysed with 90 μl lysis buffer (20 mM Hepes pH 7.5, 200 mM NaCl, 1.5 mM MgCl2×6H2O, 0.4 mM EDTA, 1% Triton-X-100, 1% Phosphatase-Inhibitor II, 20 mM D-Glycerolphosphat, 0.1% Protease-Inhibitor Cocktail III, 0.01% Benzonase) und lysates were cleared by centrifugation through a 96-well filter plate (0.65 μm). Samples were incubated with Luminex-beads which were coupled with an anti-total cKIT antibody overnight at 4° C. under gentle agitation. For detection of phospho-Y307-cKIT a phosphospecific antibody and a species-specific PE-labelled secondary antibody were added. The amount of phospho-Y307-cKIT was determined in a Luminex 200 instrument measuring 100 events per well within 60 seconds.
Counts from samples treated with compounds were calculated as percent of control from solvent treated (0.3% DMSO) samples. Dose-response curves were fitted and IC50 values were determined using Genedata Screener software.

## COc1cc2[nH]nc(-c3cc(-c4ccc(C(=O)N5CCNCC5)cc4)no3)c2cc1F [A225, {4-[5-(5-fluoro-6-methoxy-1H-indazol-3-yl)-isoxazol-3-yl]-phenyl}-piperazin-1-yl-methanone]
c-Kit(V654A)
  IC50: 3.1 nM
[1]
  IC50: 340 nM

## COCCOc1cc2[nH]nc(-c3cc(-c4ccc(C(=O)N5CC(c6cccnc6)C5)cc4)no3)c2cc1F [A192, 5-fluoro-6-(2-methoxyethoxy)-3-(3-{4-[3-(pyridin-3-yl)azetidine-1-carbonyl]phenyl}-1,2-oxazol-5-yl)-1H-indazole]
c-Kit(V654A)
  IC50: 0.45 nM
[1]
  IC50: 14 nM

## COCCOc1cc2[nH]nc(-c3cc(-c4ccc(C(=O)N5C[C@H]6CC(=O)N[C@H]6C5)cc4)no3)c2cc1F (relative stereo) [A203, (cis)-5-(4-{5-[5-fluoro-6-(2-methoxyethoxy)-1H-indazol-3-yl]-1,2-oxazol-3-yl}benzoyl)-octahydropyrrolo[2,3-c]pyrrol-2-one]
c-Kit(V654A)
  IC50: 1.4 nM
[1]
  IC50: 560 nM

## COCCOc1cc2[nH]nc(-c3cc(-c4ccc(C(=O)N5CC6(CCN(C7COC7)CC6)C5)cc4)no3)c2cc1F [A199, 2-(4-{5-[5-fluoro-6-(2-methoxyethoxy)-1H-indazol-3-yl]-1,2-oxazol-3-yl}benzoyl)-7-(oxetan-3-yl)-2,7-diazaspiro[3.5]nonane]
c-Kit(V654A)
  IC50: 0.76 nM
[1]
  IC50: 28 nM

## COCCOc1cc2[nH]nc(-c3cc(-c4ccc(C(=O)N5CC[C@@H]5CS(C)(=O)=O)cc4)no3)c2cc1F [A154, 5-fluoro-3-(3-{4-[(2R)-2-(methanesulfonylmethyl)azetidine-1-carbonyl]phenyl}-1,2-oxazol-5-yl)-6-(2-methoxyethoxy)-1H-indazole]
c-Kit(V654A)
  IC50: 0.89 nM
[1]
  IC50: 110 nM

## COCCOc1cc2[nH]nc(-c3cc(-c4ccc(C(=O)N5CCC56COC6)c(F)c4)no3)c2cc1F [A170, (2-fluoro-4-{5-[5-fluoro-6-(2-methoxy-ethoxy)-1H-indazol-3-yl]-isoxazol-3-yl}-phenyl)-(6-oxa-1-aza-spiro[3.3]hept-1-yl)-methanone]
c-Kit(V654A)
  IC50: 2.6 nM
[1]
  IC50: 120 nM

## COc1cc2[nH]nc(-c3cc(-c4ccc(C(=O)N5CC(N6CCOCC6)C5)cc4)no3)c2cc1F [A61, 5-fluoro-6-methoxy-3-(3-{4-[3-(morpholin-4-yl)azetidine-1-carbonyl]phenyl}-1,2-oxazol-5-yl)-1H-indazole]
c-Kit(V654A)
  IC50: 5.5 nM
[1]
  IC50: 110 nM

## COCCOc1cc2[nH]nc(-c3cc(-c4ccc(NC(C)=O)cc4)no3)c2cc1Cl [A17, N-(4-{5-[5-chloro-6-(2-methoxyethoxy)-1H-indazol-3-yl]-1,2-oxazol-3-yl}phenyl)acetamide]
c-Kit(V654A)
  IC50: 5.3 nM
[1]
  IC50: 130 nM

## COCCOc1cc2[nH]nc(-c3cc(-c4ccc(C(=O)N5CCOC[C@H]5CO)cc4)no3)c2cc1F [A105, [(3R)-4-(4-{5-[5-fluoro-6-(2-methoxyethoxy)-1H-indazol-3-yl]-1,2-oxazol-3-yl}benzoyl)morpholin-3-yl]methanol]
c-Kit(V654A)
  IC50: 1.2 nM
[1]
  IC50: 140 nM

## COCCOc1cc2[nH]nc(-c3cc(-c4ccc(C(=O)N5CCC[C@H]5CS(C)(=O)=O)cc4)no3)c2cc1F [A7, 5-fluoro-3-(3-{4-[(2S)-2-(methanesulfonylmethyl)pyrrolidine-1-carbonyl]phenyl}-1,2-oxazol-5-yl)-6-(2-methoxyethoxy)-1H-indazole]
c-Kit(V654A)
  IC50: 0.75 nM
[1]
  IC50: 40 nM

## COCCOc1cc2[nH]nc(-c3cc(-c4ccc(N5CCN(C)CC5)nc4)no3)c2cc1F [A39, 5-fluoro-6-(2-methoxyethoxy)-3-{3-[6-(4-methylpiperazin-1-yl)pyridin-3-yl]-1,2-oxazol-5-yl}-1H-indazole]
c-Kit(V654A)
  IC50: 1.7 nM
[1]
  IC50: 150 nM

## COCCOc1cc2[nH]nc(-c3cc(-c4ccc(C(=O)N5CC(N6CCO[C@@H](C)C6)C5)cc4)no3)c2cc1F [A210, 5-fluoro-6-(2-methoxyethoxy)-3-[3-(4-{3-[(2S)-2-methylmorpholin-4-yl]azetidine-1-carbonyl}phenyl)-1,2-oxazol-5-yl]-1H-indazole]
c-Kit(V654A)
  IC50: 0.8 nM
[1]
  IC50: 30 nM
